Results reported in publication PMC10353187, “Discovery of a new potent oxindole multi-kinase inhibitor among a series of designed 3-alkenyl-oxindoles with ancillary carbonic anhydrase inhibitory activity as antiproliferative agents” (BMC Chemistry, 2023).

Legend:
Experiment in all cases: NCI-60 single-dose antiproliferative assay (SRB)
Format in all cases: cell-based
OVCAR-5 = conditions: Homo sapiens; 10 μM single dose; OVCAR-5, Ovarian Cancer; read-out: Cell Growth inhibition Percent
How it was run: (§1)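 A 48 h exposure to 10 µM compound, in triplicate wells, followed 24 h of cell attachment in RPMI 1640 with 5% FBS and 2 mM glutamine. TCA-fixed cells were stained with SRB and read at 515 nm to give percent growth relative to controls.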

HS 578T = conditions: Homo sapiens, 10 μM single dose, Breast cancer, read-out: Cell Growth inhibition Percent
How it was run: as §1

SK-MEL-2 = conditions: Homo sapiens; 10 μM single dose; SK-MEL-2, Melanoma; read-out: Cell Growth inhibition Percent
How it was run: as §1

NCI-H322M = conditions: Homo sapiens, 10 μM single dose, Non-small cell lung cancer, read-out: Cell Growth inhibition Percent
How it was run: as §1

DU-145 = conditions: Homo sapiens; 10 μM single dose; DU-145, Prostate cancer; read-out: Cell Growth inhibition Percent
How it was run: as §1

HT29 = conditions: Homo sapiens, HT-29; 10 μM single dose; HT29, Colon cancer; read-out: Cell Growth inhibition Percent
How it was run: as §1

## O=C1Nc2ccccc2C1=CNc1ccc(C(=O)O)cc1 [Compound 4c, 4-{[(2-Oxoindolin-3-ylidene)methyl]amino}benzoic acid]
OVCAR-5
  inhibition at 10 µM: 0.03%
HS 578T
  inhibition at 10 µM: 0.5%

## NS(=O)(=O)N/C=C1/C(=O)Nc2ccccc21 [Compound 5, 3-(sulfamidmethylene)indoline-2-one]
SK-MEL-2
  inhibition at 10 µM: 2.36%
NCI-H322M
  inhibition at 10 µM: 3.18%

## NS(=O)(=O)c1ccc(NCc2ccc(NC=C3C(=O)Nc4ccccc43)cc2)cc1 [Compound 11a, 4-{[4-({[2-Oxoindolin-3-ylidene]methyl}amino)benzyl]amino}benzenesulfonamide]
DU-145
  inhibition at 10 µM: 2.9%

## O=C1Nc2ccccc2C1=CNc1ccc(C(=O)C=CNc2nccs2)cc1 [Compound 13c, 3-{[(4-{3-[Thiazol-2-ylamino]acryloyl}phenyl)amino]methylene}indolin-2-one]
HT29
  inhibition at 10 µM: 8.13%

## O=C(Nc1ccc(NC=C2C(=O)Nc3ccccc32)cc1)Nc1nccs1 [Compound 15c, 1-{4-[((2-Oxoindolin-3-ylidene)methyl)amino]phenyl}-3-(thiazol-2-yl)urea]
OVCAR-5
  inhibition at 10 µM: 39.6%
DU-145
  inhibition at 10 µM: 59.5%
HS 578T
  inhibition at 10 µM: 68.5%
HT29
  inhibition at 10 µM: 82.1%
SK-MEL-2
  inhibition at 10 µM: 37.9%
NCI-H322M
  inhibition at 10 µM: 47.2%
